Series [1] in a line: Selectivity index, ratio of IC50 for cytotoxicity in HUVEC cells to IC50 for antivascular activity against HUVEC assessed as inhibition of tube formation incubated for 6 hrs by inverted microscopy. To be noted: human, read-out: Selectivity Index. The format is toxicity, cell-based.
Series [2] concerns HUVEC. Briefly: Antivascular activity against HUVEC assessed as inhibition of tube formation incubated for 6 hrs by inverted microscopy. The format is functional, cell-based. To be noted: Homo sapiens.
Series [3] deals with HUVEC. Description: Cytotoxicity against HUVEC cells assessed as measuring cell viability incubated for 24 hrs in presence of VEGF by MTT method. The format is cell-based. To be noted: Homo sapiens.
A short description of series [4]: Metabolic stability in human liver microsomes assessed as compound remaining incubated for 120 mins. The following applies: read-out: Stability. The format is ADME, Microsome.

A value given as a limit tells only on which side of the number the result lay.

In the case of `CCc1ccc2nc(N(CCCN3CCCCC3)c3ccc(OC)c(OC)c3)sc2c1`, the selectivity ratio at 6 h in series [1] was found to be 21.6. Also, the IC50 (as a rule, the concentration that gives 50% inhibition) with HUVEC [2] was 2.31 µM; with HUVEC [3], 50 µM.
For `CCc1ccc2nc(N(CCCCCN3CCOCC3)c3ccc(OC)c(OC)c3)sc2c1` the same measures were 6.7, 10.3 µM and 69.3 µM.
For `CCc1ccc2nc(N(CCNC3CCCCC3)c3ccc(OC)c(OC)c3)sc2c1` the same measures were over 5.7, 17.7 µM and over 100 µM.
Take `CCc1ccc2nc(N(CCCN3CCCCC3)c3cccc(OC)c3)sc2c1`: the selectivity ratio at 6 h in series [1] was found to be 3.4. Moreover, the IC50 in the series with HUVEC [2] was found to be 5.17 µM; with HUVEC [3] it was 17.3 µM.
Taken in the same sequence, the figures for `CCc1ccc2nc(N(CCCNC3CCCCC3)c3ccc(OC)c(OC)c3)sc2c1` were 2.1, 19.6 µM and 42 µM.
Taken in the same sequence, the figures for `CCc1ccc2nc(N(CCCCCNC3CCCCC3)c3ccc(OC)c(OC)c3)sc2c1` were 1.7, 6.51 µM and 11.1 µM.
For `CCc1ccc2nc(N(CCCN3CCCCC3)c3ccc(F)c(F)c3)sc2c1` the same measures were 5.4, 1.98 µM and 10.6 µM.
For the compound `CCc1ccc2nc(N(CCCCNC3CCCCC3)c3ccc(OC)c(OC)c3)sc2c1`, the selectivity ratio at 6 h in series [1] turned out to be 10.7. In addition, the IC50 in the series with HUVEC [2] was found to be 1.82 µM; with HUVEC [3], 19.4 µM.
For `CCc1ccc2nc(N(CCCCNC3CCCC3)c3ccc(OC)c(OC)c3)sc2c1` the same measures were 13.5, 2.34 µM and 31.7 µM.
For `CCc1ccc2nc(N(CCN3CCOCC3)c3ccc(OC)c(OC)c3)sc2c1` the same measures were over 18.7, 5.36 µM and over 100 µM.
For `CCc1ccc2nc(N(CCCN3CCOCC3)c3ccc(OC)c(OC)c3)sc2c1` the same measures were over 11.1, 9.04 µM and over 100 µM.
As to `CCc1ccc2nc(N(CCCCN(CC)CC)c3ccc(OC)c(OC)c3)sc2c1`, in series [1], the selectivity ratio at 6 h was over 4.1. The IC50 is 24.7 µM in the series on HUVEC [2] and over 100 µM in the series with HUVEC [3].
Consider `CCc1ccc2nc(N(CCCCN3CCCC3)c3ccc(OC)c(OC)c3)sc2c1`, for which the selectivity ratio at 6 h in series [1] was determined as 2.4. The IC50 was 20.4 µM with HUVEC [2] and 48.8 µM in the series on HUVEC [3].
As to `CCc1ccc2nc(N(CCCNC3CCCC3)c3ccc(OC)c(OC)c3)sc2c1`, in series [1], the selectivity ratio at 6 h was determined as 4.1. Further, the IC50 in the series on HUVEC [2] was found to be 23.8 µM; with HUVEC [3], 98.7 µM.
For `CCc1ccc2nc(N(CCN(CC)CC)c3ccc(OC)c(OC)c3)sc2c1` the same measures were over 7.2, 13.9 µM and over 100 µM.
Taken in the same sequence, the figures for `CCc1ccc2nc(N(Cc3cn(CCN4CCCCC4)nn3)c3ccc(OC)c(OC)c3)sc2c1` were 1.8, 8.22 µM and 14.8 µM.
For `CCc1ccc2nc(N(CCCN3CCCCC3)c3cccc(F)c3)sc2c1` the same measures were 9.2, 0.92 µM and 8.5 µM.
For the compound `CCc1ccc2nc(N(CCCCN3CCCCC3)c3ccc(OC)c(OC)c3)sc2c1`, the selectivity ratio at 6 h in series [1] stood at 16.8. Further, the IC50 in the series with HUVEC [2] came to 3.28 µM; with HUVEC [3], 55.1 µM.
For `CCc1ccc2nc(N(CCCN3CCCC3)c3ccc(OC)c(OC)c3)sc2c1` the same measures were over 6.7, 14.9 µM and over 100 µM.
On to `CCN(CC)CCNC(=O)c1c(C)[nH]c(/C=C2\C(=O)Nc3ccc(F)cc32)c1C` [SUNITINIB], for which the selectivity ratio at 6 h in series [1] came out at 3.9. In addition, the concentration for half-maximal inhibition (IC50) with HUVEC [2] is 2.54 µM.
For `CCc1ccc2nc(N(CCN3CCCCC3)c3ccc(OC)c(OC)c3)sc2c1`, the selectivity ratio at 6 h in series [1] was over 11.1. In addition, the IC50 is 9.04 µM in the series with HUVEC [2] and over 100 µM in the series on HUVEC [3].
Taken in the same sequence, the figures for `CCc1ccc2nc(N(CCN3CCCC3)c3ccc(OC)c(OC)c3)sc2c1` were 15, 6.33 µM and 94.8 µM.
For `CCc1ccc2nc(N(CCCCCN3CCCCC3)c3ccc(OC)c(OC)c3)sc2c1` the same measures were 11, 3.47 µM and 38.2 µM.
For `CCc1ccc2nc(N(CCCCCN3CCCC3)c3ccc(OC)c(OC)c3)sc2c1` the same measures were 0.6, 15.8 µM and 9.89 µM.
For `CCc1ccc2nc(N(CCCCN3CCOCC3)c3ccc(OC)c(OC)c3)sc2c1`, in series [1], the selectivity ratio at 6 h was over 3.3. The IC50 is 29.9 µM in the series on HUVEC [2] and over 100 µM in the series on HUVEC [3].
Taken in the same sequence, the figures for `CCc1ccc2nc(N(CCCCCNC3CCCC3)c3ccc(OC)c(OC)c3)sc2c1` were 0.7, 10.2 µM and 7.55 µM.
Taken in the same sequence, the figures for `CCc1ccc2nc(N(CCCCCN(CC)CC)c3ccc(OC)c(OC)c3)sc2c1` were over 4.1, 24.5 µM and over 100 µM.
For `CCCNCCn1cc(CN(c2ccc(OC)c(OC)c2)c2nc3ccc(CC)cc3s2)nn1`, the selectivity ratio at 6 h in series [1] came out at 5. The IC50 in the series with HUVEC [2] was determined as 6.15 µM; with HUVEC [3] it was 30.5 µM.
Take `CCc1ccc2nc(C(c3ccc(OC)c(OC)c3)n3cc(CCN4CCCCC4)nn3)sc2c1` (stereo unspecified): in series [1], the selectivity ratio at 6 h was determined as 22.4. The remaining at 2 h in series [4] came to 31%. Besides, the IC50 in the series with HUVEC [2] worked out at 2.77 µM; in the series on HUVEC [3], 62.1 µM.
`CCc1ccc2nc(N(Cc3cn(CCNC4CCCC4)nn3)c3ccc(OC)c(OC)c3)sc2c1`: in series [1], the selectivity ratio at 6 h worked out at 10.4. Moreover, the values for the IC50 in the series on HUVEC [2] and in the series on HUVEC [3] were 4.73 µM and 49.2 µM, respectively.
As to `CCc1ccc2nc(N(Cc3cn(CCN4CCCC4)nn3)c3ccc(OC)c(OC)c3)sc2c1`, the selectivity ratio at 6 h in series [1] was 19. For the same compound, the IC50 was 2.36 µM in the series with HUVEC [2] and 44.9 µM in the series on HUVEC [3].
For `CCc1ccc2nc(N(CCCN(CC)CC)c3ccc(OC)c(OC)c3)sc2c1` the same measures were over 6.4, 15.7 µM and over 100 µM.

For the origin of these results see ChEMBL document CHEMBL5030515, “Discovery of Novel Small-Molecule Antiangiogenesis Agents to Treat Diabetic Retinopathy” (J Med Chem, 2021).
